This series can be described thus: gradient 5% acetonitrile 3 min, to 50% in 2 min, to 85% in 15 min, held 3 min, 100 µL/min. As to conditions: column: Zorbax Extend-C18 2.1 x 50 mm; eluents: water / acetonitrile, 0.1% formic acid. Summed up:
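Pure standards were analyzed in mixtures of ~100 molecules using HPLC coupled to a quadrupole time-of-flight mass spectrometer, in both positive and negative ionization mode. Separation used a Zorbax Extend-C18 column (2.1 × 50 mm, 1.8 μm) at 100 μL/min, with water and acetonitrile each containing 0.1% formic acid. Dead and dwell volumes were 40 μL and 900 μL, and data were collected over 3 months. Retention time was read from computationally picked adduct peaks, each inspected manually.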
`COCc1cc(=O)n(Cc2ccccc2F)c(N2CCCC2)n1` registered an RP-LC retention time of 790 s.
In turn, `CCOc1ccccc1NC(=O)CNC(=O)c1c[nH]c2ccccc12` displayed an RP-LC retention time of 729 s.
For the molecule `Cc1ccc2cc(CN3C[C@@H](CO)[C@H](c4ccccn4)C3)c(=O)[nH]c2c1`, the RP-LC retention time worked out at 585 s.
As for `CS(=O)(=O)c1ccc(Nc2ncccc2S(N)(=O)=O)cc1`, the figure is 668 s; as for `O=C(CSc1nc2ncccc2[nH]1)Nc1ccc(Br)cc1F`, 720 s.
Turning to `Cc1ccc(NC(=O)NCC2(N3CCOCC3)CCOC2)c(C)c1` (stereo not drawn), the RP-LC retention time amounted to 597 s.
`Cc1nn(-c2ccc(N3CCOCC3)nn2)c(C)c1CCC(=O)Nc1ccccc1F` gave an RP-LC retention time of 709 s.
`CCCC(NC(=O)c1ccc(C(F)(F)F)cc1)C(=O)Nc1nc2ccccc2[nH]1` (stereo not drawn) yielded an RP-LC retention time of 802 s.
As to `Cn1c(=O)c(N2CCCC(C(=O)N3CCCCCC3)C2)nc2cccnc21` (stereo not drawn), the RP-LC retention time was determined as 918 s.
Turning to `Cc1ccccc1NS(=O)(=O)c1ccc(-c2c(C)noc2C)cc1`, the RP-LC retention time was 924 s.
On to `CCOC(=O)N1CCN(C(=O)CSc2ncnc3c2nnn3CC)CC1`, for which the RP-LC retention time was 657 s.
On to `CN1C(=O)NC(c2ccc(Cl)cc2)C2=C1CN(c1ccc(C(=O)O)cc1)C2=O` (stereo not drawn), for which the RP-LC retention time amounted to 691 s.
`CC[C@@H](c1cccc(O)c1)[C@@H](C)CN(C)C` had an RP-LC retention time of 633 s.
The molecule `O=C(Cn1cc(-c2ccccc2)c2ncn(C3CC3)c(=O)c21)NCc1ccco1` came in with an RP-LC retention time of 799 s.
In the case of `CCn1ccc(C(=O)N2CCCn3nc(-c4ccc(C)cc4)cc3C2)n1`, the RP-LC retention time amounted to 805 s.
As for `CC(C)CN1CCN(Cc2nc(-c3ccc(N4CCCC(C)C4)nc3)no2)CC1` (stereo not drawn), the figure is 645 s; as for `O=C(CSc1nnc2c3cc(-c4ccccc4)nn3ccn12)NCc1ccccc1Cl`, 800 s.
Take `O=C(Cn1cnc2nc(N3CCC(C(=O)NC4CC4)CC3)sc2c1=O)Nc1ccc(F)c(F)c1`: the RP-LC retention time came to 705 s.
For `O=C(c1cnn2cccnc12)N1CCCC1c1cccc(F)c1` (stereo not drawn) the value was 754 s.
Turning to `CC(C)n1cnc(S(=O)(=O)N2CCCC(C(=O)Nc3ccccc3F)C2)c1` (stereo not drawn), the RP-LC retention time came to 772 s.
As for `CCc1ccc(N2CC(c3noc(-c4ccccn4)n3)CC2=O)cc1` (stereo not drawn), the figure is 829 s.
The molecule `O=C(NCCCN1CCCC1)C1CCCN(c2nccnc2Sc2ccccc2)C1` (stereo not drawn) showed an RP-LC retention time of 659 s.
In turn, `O=C(NCCN1CCCC1)C1CCN(c2nc(-c3ccc(Cl)cc3)no2)CC1` had an RP-LC retention time of 603 s.
`O=C(Cn1ncc2c(N3CCN(c4ccccn4)CC3)ncnc21)Nc1ccc(F)c(Cl)c1` gave an RP-LC retention time of 650 s.
Turning to `COc1ccc(C)cc1NC(=O)N1C[C@@H]2C[C@H](NS(C)(=O)=O)[C@H]1C2`, the RP-LC retention time was 717 s.
For `CCCCOc1ccc(C(=O)N2CCCC2c2nc(-c3ccccc3)no2)cc1` (stereo not drawn) the value was 1230 s; for `Cc1ccc(C)c(C(=O)NCC(C)(O)c2ccccc2)c1` (stereo not drawn), 759 s.
Consider `CCOc1ccc(NC(=O)C2CCCN(c3ncnc4c3oc3ccccc34)C2)cc1` (stereo not drawn), for which the RP-LC retention time turned out to be 816 s.
For `CC1=NS(=O)(=O)N(C)C=C1C(=O)OCc1nc(-c2ccc(C(F)(F)F)cc2)no1` the value was 1060 s.
`CN1C(C(=O)Nc2ccccn2)=C(O)c2sc(Cl)cc2S1(=O)=O`: the RP-LC retention time was 793 s.
Turning to `Cc1cnc(NC(=O)c2ccc(N3CCCC3)nn2)s1`, the RP-LC retention time turned out to be 636 s.
Regarding `O=C(Cn1nc2c(Oc3ccccc3)nccn2c1=O)Nc1cc(C(F)(F)F)ccc1Cl`, the RP-LC retention time amounted to 960 s.
`Cc1ccnc(N2CCCC(C(=O)NC3CCCC3)C2)n1` (stereo not drawn) yielded an RP-LC retention time of 674 s.
